Patent US20130102680A1, “METHODS FOR SELECTIVE SILENCING OF SENSORY NEURONS” (CORNELL UNIVERSITY, priority 2011, published 2013)

Tests used:
[1] = target: T1, rat TRPV1 (Rattus norvegicus, UniProt O35433); assay: YO-PRO-1 uptake (imaging / plate-reader) in TRPV1-expressing cells; type: cell-based; conditions: for fold decrease of t1/2 to maximal YO-PRO-1 fluorescence, pretreated vs not pretreated cells: 50 μM agonist pre-incubated two hours then removed, 5 μM YO-PRO-1, n=3; for agonist-induced YO-PRO-1 uptake: extracellular application
T1 construct: expressed in transfected cells
T1 sequence (O35433 whole entry): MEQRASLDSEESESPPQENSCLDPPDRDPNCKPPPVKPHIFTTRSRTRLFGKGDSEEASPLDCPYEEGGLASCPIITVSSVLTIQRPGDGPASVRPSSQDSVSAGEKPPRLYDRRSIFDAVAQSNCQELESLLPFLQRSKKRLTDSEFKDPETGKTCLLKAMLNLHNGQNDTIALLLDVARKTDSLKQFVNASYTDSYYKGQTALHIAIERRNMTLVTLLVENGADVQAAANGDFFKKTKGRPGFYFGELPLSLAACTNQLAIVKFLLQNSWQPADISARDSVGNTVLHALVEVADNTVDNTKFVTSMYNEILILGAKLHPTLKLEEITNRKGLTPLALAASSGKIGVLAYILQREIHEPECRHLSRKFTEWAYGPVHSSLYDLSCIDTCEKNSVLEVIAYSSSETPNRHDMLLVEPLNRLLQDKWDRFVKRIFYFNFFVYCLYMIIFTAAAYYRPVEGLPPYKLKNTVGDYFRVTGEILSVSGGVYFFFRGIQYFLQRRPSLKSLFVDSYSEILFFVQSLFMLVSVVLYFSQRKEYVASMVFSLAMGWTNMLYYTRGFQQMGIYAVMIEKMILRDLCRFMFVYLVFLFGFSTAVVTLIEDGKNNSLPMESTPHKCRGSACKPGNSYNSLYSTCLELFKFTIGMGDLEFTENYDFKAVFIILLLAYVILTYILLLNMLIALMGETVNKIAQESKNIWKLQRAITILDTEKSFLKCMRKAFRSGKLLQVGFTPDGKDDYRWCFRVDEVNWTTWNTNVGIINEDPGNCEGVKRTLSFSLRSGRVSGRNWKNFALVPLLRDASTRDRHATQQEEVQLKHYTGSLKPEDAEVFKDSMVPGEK
Method: Human embryonic kidney (HEK) 293 cells stably expressing rat TRPV1 were grown in DMEM/F12 with 10% newborn calf serum and antibiotics and cultured in a 5% CO2 aerated incubator at 37° C. Cells were trypsinized and plated on 96-well plates or matrix-coated coverslips for Ca^2+ imaging, YO-PRO-1 imaging, plate-reader assays, or electrophysiological recording. Calcium imaging, fluorescent dye uptake assays, and electrophysiological experiments were all performed 24-72 hours after plating.
Cells were plated in 96-well plates to near confluence. Images were acquired at a rate of 1 frame per 15 sec. The fields were illuminated for 2 sec for each frame. The fluorescent intensity was measured at the emission wavelength of 510/20 nm. 2× concentration of agonists and 10 μM YO-PRO-1 were mixed and added at equal volume to a bath solution with the same electrolyte composition except omitting CaCl2.
TRPV1 cell lines were passed into 96-well plate, grown to confluence, and assayed in a physiological Ringer solution. 50 μl of solution as used for YO-PRO-1 imaging with agonists of various concentrations was added to each well. Fluorescence intensity (485-nm excitation, 516-nm emission) was monitored by Multi-detection Microplate Reader (BioTek). For normalization, cells were fixed by 5% PFA at the end of experiments and counted total fluorescence from each well after adding digitonin solution (Assay Designs) with 5 μM YO-PRO-1.

[2] = target: T1, rat TRPV1; assay: Electrophysiology of membrane patches from HEK cells expressing rat TRPV1; type: cell-based
[3] = target: T1, rat TRPV1; assay: Ca^2+ imaging (Fura-2) in HEK293 cells stably expressing rat TRPV1; type: cell-based; conditions: for intracellular Ca^2+ level on extracellular application: ratiometric fura-2 imaging
[4] = system: voltage gated Na+ channels; assay: Neuronal Na+ currents after cap-ET and/or QX-314 loading, whole-cell recording; conditions: PAO or cap-ET alone (10 μM), then 5 mM QX-314
[5] = target: T2, rTRPV1 Y511A (Rattus norvegicus, UniProt O35433, Y511A); assay: YO-PRO-1 entry in HEK cells expressing rTRPV1 Y511A; type: cell-based
T2 construct: expressed in transfected cells; host or cells: HEK cells
T2 sequence (O35433 whole entry Y511A): as the sequence (O35433 whole entry) above, with Y511A counted along it
Method: Cells were plated in 96-well plates to near confluence. Images were acquired at a rate of 1 frame per 15 sec. The fields were illuminated for 2 sec for each frame. […] TRPV1 cell lines were passed into 96-well plate, grown to confluence, and assayed in a physiological Ringer solution. 50 μl of solution as used for YO-[MUT] imaging with agonists of various concentrations was added to each well. Fluorescence intensity (485-nm excitation, 516-nm emission) was monitored by Multi-detection Microplate Reader (BioTek). For normalization, cells were fixed by 5% PFA at the end of experiments and counted total fluorescence from each well after adding digitonin solution (Assay Designs) with 5 μM YO-[MUT].

CCCC(=O)O[C@@H]1[C@@H](C)[C@@]2(O)[C@@H](C=C(CO)C[C@]3(O)C(=O)C(C)=C[C@@H]23)[C@@H]2C(C)(C)[C@]12OC(=O)CCC [PDBu]
effect on potency of capsaicin or cap-ET for YO-PRO-1 uptake [1]: increased the potency

N.N.N.N.N.N.N.N.N.N.N.N.N.N.[Cl-].[Cl-].[Cl-].[Cl-].[Cl-].[Cl-].[O-2].[O-2].[Ru+3].[Ru+3].[Ru+4] [RR, ruthenium red]
effect on capsaicin-mediated YO-PRO-1 entry ([1]; 10 μM): effectively suppressed YO-PRO-1 entry

C[n+]1c(C=C2C=CN(CCC[N+](C)(C)C)c3ccccc32)oc2ccccc21 [YO-PRO-1, reference compound]
block of TRPV1 currents evoked by 10 μM capsaicin ([2]; 5 μM, inside-out patch): reversibly blocked

COc1cc(CNC(=O)CCCC/C=C/C(C)C)ccc1OCC[N+](C)(C)C [cap-ET, capsaicin O-ethyl (trimethyl-ammonium) acetate]
rank of potency and efficacy in Ca^2+ signals among the three charged capsaicinoids [3]: most potent and efficacious among the three | intracellular Ca^2+ level on extracellular application [3]: effectively raised intracellular Ca^2+ levels | Icap-ET/Icap (ionic current relative to capsaicin), PAO-sensitized TRPV1 [2]: 3.0±0.9% | electric current induced, TRPV1 sensitized by 10 μM PAO ([2]; 100 μM cap-ET): recordable but small current | block of capsaicin-induced TRPV1 currents ([2]; 100 μM cap-ET co-applied with 30 μM capsaicin, from outside or inside): strong voltage-dependent block | electric current induced on cytoplasmic side of inside-out patch ([2]; 100 μM cap-ET, compared to 30 μM capsaicin): barely detectable electric current | fold decrease of t1/2 to maximal YO-PRO-1 fluorescence, pretreated vs not pretreated cells [1]: 5.37±0.99 fold | agonist-induced YO-PRO-1 uptake [1]: induced YO-PRO-1 uptake | hydrophilicity relative to capsaicin, based on water/octanol partitioning: over 300 fold | Na+ current density after QX-314, agent alone [4]: comparable to cells not exposed to QX-314

CC[N+](CC)(CC)CCOc1ccc(CNC(=O)CCCC/C=C/C(C)C)cc1OC [cap-ETEA, capsaicin O-tetra-ethylammonium acetate]
intracellular Ca^2+ level on extracellular application [3]: effectively raised intracellular Ca^2+ levels

COc1cc(CNC(=O)CCCC/C=C/C(C)C)ccc1O [capsaicin]
intracellular Ca^2+ level on extracellular application [3]: large intracellular Ca^2+ rise | fold decrease of t1/2 to maximal YO-PRO-1 fluorescence, pretreated vs not pretreated cells [1]: 1.14±0.04 fold | agonist-induced YO-PRO-1 uptake [1]: induced YO-PRO-1 uptake | YO-PRO-1 transport via rTRPV1 Y511A mutant [5]: failed to elicit YO-PRO-1 transport
